Legend:
Experiment in all cases: relative viability (nuclei count vs DMSO), 5 days (fraction); higher = more cells survive
NCI-H2085 = system: NCI-H2085
Procedure, shortened: (§1)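 Relative viability is defined as nuclei in treated wells over nuclei in vehicle wells. Duplicate plates were run and medians reported. Lung cancer cell lines in 1536-well plates were dosed by pin tool one day after seeding, with one drug or with a fixed anchor-drug dose plus five library-drug doses (not always all listed) in √10 steps, and nuclei were counted after 5 days.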

NCI-H460 = system: NCI-H460
Procedure, shortened: as §1

LCLC-103H = system: LCLC-103H
Procedure, shortened: as §1

NCI-H838 = system: NCI-H838
Procedure, shortened: as §1

NCI-H1755 = system: NCI-H1755
Procedure, shortened: as §1

NCI-H2342 = system: NCI-H2342
Procedure, shortened: as §1

SK-LU-1 = system: SK-LU-1
Procedure, shortened: as §1

NCI-H1355 = system: NCI-H1355
Procedure, shortened: as §1

NCI-H322M = system: NCI-H322M
Procedure, shortened: as §1

NCI-H1666 = system: NCI-H1666
Procedure, shortened: as §1

EMC-BAC-2 = system: EMC-BAC-2
Procedure, shortened: as §1

NCI-H1648 = system: NCI-H1648
Procedure, shortened: as §1

PC-14 = system: PC-14
Procedure, shortened: as §1

LK-2 = system: LK-2
Procedure, shortened: as §1

NCI-H1944 = system: NCI-H1944
Procedure, shortened: as §1

NCI-H647 = system: NCI-H647
Procedure, shortened: as §1

NCI-H1437 = system: NCI-H1437
Procedure, shortened: as §1

RERF-LC-KJ = system: RERF-LC-KJ
Procedure, shortened: as §1

NCI-H2126 = system: NCI-H2126
Procedure, shortened: as §1

SW 900 = system: SW 900
Procedure, shortened: as §1

NCI-H1915 = system: NCI-H1915
Procedure, shortened: as §1

NCI-H1975 = system: NCI-H1975
Procedure, shortened: as §1

NCI-H3122 = system: NCI-H3122
Procedure, shortened: as §1

Structure (SMILES): C=C1C(=O)O[C@@H](CCCCCCCC)[C@@H]1C(=O)O [C-75] + O=C(c1cc(Cc2n[nH]c(=O)c3ccccc23)ccc1F)N1CCN(C(=O)C2CC2)CC1 [Olaparib] (partner 8 µM)
- relative viability (NCI-H2085; first compound 0.08 µM): 0.766
- relative viability (NCI-H2085; first compound 0.253 µM): 0.61
- relative viability (NCI-H2085; first compound 0.8 µM): 0.753
- relative viability (NCI-H2085; first compound 2.53 µM): 0.681
- relative viability (NCI-H2085; first compound 8 µM): 0.725
- relative viability (NCI-H460; first compound 0.08 µM): 0.413
- relative viability (NCI-H460; first compound 0.253 µM): 0.503
- relative viability (NCI-H460; first compound 0.8 µM): 0.366
- relative viability (NCI-H460; first compound 2.53 µM): 0.356
- relative viability (NCI-H460; first compound 8 µM): 0.377
- relative viability (LCLC-103H; first compound 0.08 µM): 0.8
- relative viability (LCLC-103H; first compound 0.253 µM): 0.719
- relative viability (LCLC-103H; first compound 0.8 µM): 0.697
- relative viability (LCLC-103H; first compound 2.53 µM): 0.641
- relative viability (LCLC-103H; first compound 8 µM): 0.767
- relative viability (NCI-H838; first compound 0.08 µM): 0.778
- relative viability (NCI-H838; first compound 0.253 µM): 0.757
- relative viability (NCI-H838; first compound 0.8 µM): 0.738
- relative viability (NCI-H838; first compound 2.53 µM): 0.725
- relative viability (NCI-H838; first compound 8 µM): 0.654
- relative viability (NCI-H1755; first compound 0.08 µM): 0.93
- relative viability (NCI-H1755; first compound 0.253 µM): 0.872
- relative viability (NCI-H1755; first compound 0.8 µM): 0.847
- relative viability (NCI-H1755; first compound 2.53 µM): 0.797
- relative viability (NCI-H1755; first compound 8 µM): 0.846
- relative viability (NCI-H2342; first compound 0.08 µM): 0.503
- relative viability (NCI-H2342; first compound 0.253 µM): 0.49
- relative viability (NCI-H2342; first compound 0.8 µM): 0.374
- relative viability (NCI-H2342; first compound 2.53 µM): 0.38
- relative viability (NCI-H2342; first compound 8 µM): 0.454
- relative viability (SK-LU-1; first compound 0.08 µM): 0.465
- relative viability (SK-LU-1; first compound 0.253 µM): 0.451
- relative viability (SK-LU-1; first compound 0.8 µM): 0.454
- relative viability (SK-LU-1; first compound 2.53 µM): 0.393
- relative viability (SK-LU-1; first compound 8 µM): 0.377
- relative viability (NCI-H1355; first compound 0.08 µM): 0.709
- relative viability (NCI-H1355; first compound 0.253 µM): 0.767
- relative viability (NCI-H1355; first compound 0.8 µM): 0.76
- relative viability (NCI-H1355; first compound 2.53 µM): 0.647
- relative viability (NCI-H1355; first compound 8 µM): 0.753
- relative viability (NCI-H322M; first compound 0.08 µM): 0.764
- relative viability (NCI-H322M; first compound 0.253 µM): 0.965
- relative viability (NCI-H322M; first compound 0.8 µM): 0.754
- relative viability (NCI-H322M; first compound 8 µM): 0.764
- relative viability (NCI-H1666; first compound 0.08 µM): 0.681
- relative viability (NCI-H1666; first compound 0.253 µM): 0.79
- relative viability (NCI-H1666; first compound 0.8 µM): 0.678
- relative viability (NCI-H1666; first compound 8 µM): 0.653
- relative viability (EMC-BAC-2; first compound 0.08 µM): 0.506
- relative viability (EMC-BAC-2; first compound 0.253 µM): 0.464
- relative viability (EMC-BAC-2; first compound 0.8 µM): 0.475
- relative viability (EMC-BAC-2; first compound 2.53 µM): 0.389
- relative viability (EMC-BAC-2; first compound 8 µM): 0.389
- relative viability (NCI-H1648; first compound 0.08 µM): 0.921
- relative viability (NCI-H1648; first compound 0.253 µM): 1.3
- relative viability (NCI-H1648; first compound 0.8 µM): 0.597
- relative viability (NCI-H1648; first compound 8 µM): 1.03
- relative viability (PC-14; first compound 0.08 µM): 0.276
- relative viability (PC-14; first compound 0.253 µM): 0.257
- relative viability (PC-14; first compound 0.8 µM): 0.296
- relative viability (PC-14; first compound 2.53 µM): 0.252
- relative viability (PC-14; first compound 8 µM): 0.308
- relative viability (LK-2; first compound 0.08 µM): 0.674
- relative viability (LK-2; first compound 0.253 µM): 0.84
- relative viability (LK-2; first compound 0.8 µM): 0.64
- relative viability (LK-2; first compound 2.53 µM): 0.596
- relative viability (LK-2; first compound 8 µM): 0.502
- relative viability (NCI-H1944; first compound 0.08 µM): 0.381
- relative viability (NCI-H1944; first compound 0.253 µM): 0.419
- relative viability (NCI-H1944; first compound 0.8 µM): 0.353
- relative viability (NCI-H1944; first compound 2.53 µM): 0.392
- relative viability (NCI-H1944; first compound 8 µM): 0.428
- relative viability (NCI-H647; first compound 0.08 µM): 0.522
- relative viability (NCI-H647; first compound 0.253 µM): 0.727
- relative viability (NCI-H647; first compound 0.8 µM): 0.452
- relative viability (NCI-H647; first compound 2.53 µM): 0.495
- relative viability (NCI-H647; first compound 8 µM): 0.354
- relative viability (NCI-H1437; first compound 0.08 µM): 0.614
- relative viability (NCI-H1437; first compound 0.253 µM): 0.684
- relative viability (NCI-H1437; first compound 0.8 µM): 0.642
- relative viability (NCI-H1437; first compound 8 µM): 0.648
- relative viability (RERF-LC-KJ; first compound 0.08 µM): 1.02
- relative viability (RERF-LC-KJ; first compound 0.253 µM): 0.966
- relative viability (RERF-LC-KJ; first compound 0.8 µM): 0.897
- relative viability (RERF-LC-KJ; first compound 2.53 µM): 0.729
- relative viability (RERF-LC-KJ; first compound 8 µM): 0.797
- relative viability (NCI-H2126; first compound 0.08 µM): 0.881
- relative viability (NCI-H2126; first compound 0.253 µM): 0.927
- relative viability (NCI-H2126; first compound 0.8 µM): 0.858
- relative viability (NCI-H2126; first compound 2.53 µM): 0.878
- relative viability (NCI-H2126; first compound 8 µM): 0.894
- relative viability (SW 900; first compound 0.08 µM): 0.923
- relative viability (SW 900; first compound 0.253 µM): 0.945
- relative viability (SW 900; first compound 0.8 µM): 1.05
- relative viability (SW 900; first compound 2.53 µM): 0.803
- relative viability (SW 900; first compound 8 µM): 0.977
- relative viability (NCI-H1915; first compound 0.08 µM): 0.243
- relative viability (NCI-H1915; first compound 0.253 µM): 0.242
- relative viability (NCI-H1915; first compound 0.8 µM): 0.261
- relative viability (NCI-H1915; first compound 2.53 µM): 0.262
- relative viability (NCI-H1915; first compound 8 µM): 0.257
- relative viability (NCI-H1975; first compound 0.08 µM): 0.777
- relative viability (NCI-H1975; first compound 0.253 µM): 0.817
- relative viability (NCI-H1975; first compound 0.8 µM): 0.755
- relative viability (NCI-H1975; first compound 2.53 µM): 0.77
- relative viability (NCI-H1975; first compound 8 µM): 0.741
- relative viability (NCI-H3122; first compound 0.08 µM): 0.662
- relative viability (NCI-H3122; first compound 0.253 µM): 0.636
- relative viability (NCI-H3122; first compound 0.8 µM): 0.567
- relative viability (NCI-H3122; first compound 2.53 µM): 0.51
- relative viability (NCI-H3122; first compound 8 µM): 0.635
